Data reported in patent publication US20260355189A1, “SMALL MOLECULE INHIBITORS OF NEUTROPHIL EXOCYTOSIS AND INFLAMMATION” (THE SCRIPPS RESEARCH INSTITUTE, priority 2022, published 2026).

Tests used:
[1] = system: human neutrophils (secretory vesicle marker CD11b); assay: Flow cytometry of secretory vesicle mobilization (CD11b) in human neutrophils; format: cell-based; conditions: 10 μM, 1 hour; GM-CSF + fMLP; relative to DMSO; N=15 donors; FIG. 7
Text: (§1) Human neutrophils were isolated from normal donor's blood by Ficoll density centrifugation, as described previously (23). Murine bone marrow-derived neutrophils were isolated using a Percoll gradient fractionation system as described (24). A three-layer Percoll gradient was used (52%, 64%, and 72%), and neutrophils were isolated from the 64-72% interface, washed, and used in the assays.
(§2) Method: The up-regulation of granule membrane-associated neutrophil markers at the plasma membrane was analyzed by flow cytometry. In these studies, flow cytometry analysis was performed by resuspension of 1×10^6 human neutrophils in phenol red-free RPMI 1640 medium, treated with a 10 μM solution of Inhibitors C1, C2, C4, C5, and C6 and Nexinhib 20 (C20) or DMSO control for 1 hour, and stimulated with physiological agonists GM-CSF (10 ng/ml) for 30 min followed by the addition of fMLP (1 μM) to induce degranulation or left untreated at 37 °C (non-stimulated, NS). The reactions were stopped by transferring the samples to ice and immediately spinning down the cells to initiate blocking and staining. To analyze the plasma membrane expression of plasma membrane markers, the cells were blocked in ice-cold PBS containing 1% BSA and stained with phycoerythrin (PE)-, FITC-, or Alexa647-conjugated anti-human CD63, CD66b, MMP9, and CD11b antibodies that detect extracellular epitopes of these markers. The cells were then washed and fixed in 1% paraformaldehyde in PBS. Samples were analyzed using a NovoCyte flow cytometer, and the data were processed using FlowJo software.

[2] = system: human neutrophils (specific granule marker CD66b); assay: Flow cytometry of specific granule exocytosis (CD66b) in human neutrophils; format: cell-based; conditions: 1 hour, GM-CSF + fMLP; for Inhibition of CD66b up-regulation: relative to DMSO; for inhibition at 10 µM: Homo sapiens, Neutrophil, FIG. 5, read-out: % inhibition of CD66b up-regulation
Text: as §1, §2

[3] = system: human neutrophils (Gelatinase granule cargo MMP9); assay: Flow cytometry of gelatinase granule exocytosis (MMP9) in human neutrophils; format: cell-based; conditions: 1 hour, GM-CSF + fMLP; for Inhibition in MMP9 experiment (words; printed as CD66b up-regulation): 10 μM, relative to DMSO, FIG. 6; for inhibition at 10 µM: Homo sapiens, Neutrophil, N=12 donors, FIG. 6, read-out: % Inhibition of MMP9 up-regulation
Text: as §1, §2

[4] = system: mouse neutrophils; assay: Isoluminol-dependent chemiluminescence assay of MPO secretion in purified mouse neutrophils; format: cell-based
Text: FIGS. 3A-C illustrate the effect of Inhibitors C1, C2, C4, C5, and C6 and comparator Nexinhib 20 (shown as “C20”) on MPO secretion of mouse neutrophils. FIG. 3A is a schematic representation of a cell-based secondary screening assay used to analyze the potency the potency of Rab27a-JFC1 inhibitors for their ability to decrease exocytosis of intact human neutrophil. This cell-based assay measures the secretion of myeloperoxidase (MPO) by human neutrophils using cell-impermeant isoluminol-dependent chemiluminescence in the absence of exogenous peroxidases.
as §1
Extracellular MPO-dependent reactive oxygen species (ROS) production was measured using the chemiluminescence reactions mediated by isoluminol (25). To this end, 3×10^5 neutrophils were resuspended in serum-free RPMI 1640 medium in the presence of cell-impermeant isoluminol, and reactions were carried out in the absence of exogenous peroxidase. Neutrophils were incubated in the presence of compounds or DMSO (0.5%) pin-tooled into 384-well plates in a […]. Control experiments were run in parallel in the presence of [COMPOUND LEFT OUT] (0.5 mM) to inhibit endogenous myeloperoxidase. After addition of stimuli (phorbol 12-myristate 13-acetate, “PMA”) or vehicle using liquid handling devices (BioRaptor FRD, Beckman Coulter), MPO-dependent chemiluminescence was continuously monitored for 30 min at 37 °C using a 2104 EnVision multilabel plate reader. For secretion assays, 0.5×10^6 neutrophils were incubated in RPMI 1640 medium in polystyrene 96-well plates in the presence of Inhibitors or dimethyl sulfoxide (DMSO) control for 1 hour and stimulated for the indicated times at 37 °C with PMA (0.1 μg/ml), GM-CSF (10 ng/ml), and fMLP (1 μM) or DMSO control. The cells were spun down, and supernatants were transferred to clean plates using plate filters to avoid contamination from cellular secretory proteins. MPO was measured by ELISA (R&D Systems).
Results: FIG. 3B is a graph showing the effect of Inhibitors C1, C2, C4, C5, and C6 on secreted MPO-dependent reaction using the isoluminol-dependent chemiluminescence assay in highly purified mouse neutrophils. On the graph of FIG. 3B, the pre-fix “NS” means “no stimuli” where the cells were treated with 10 μM C1, C2, C4, C5, C6, and C20 alone without any exocytosis stimuli. The pre-fix “PMA” means the cells were stimulated with PMA to secrete MPO and were treated with 10 μM of the designated Inhibitor. […] Mean % inhibition: C1, 76.74; C2, 59.85; C4, 70.9; C6, 62.4; C20, 99.22.

[5] = system: human neutrophils (azurophilic granule marker CD63); assay: Flow cytometry of azurophilic granule mobilization (CD63) in human neutrophils; format: cell-based; conditions: 1 hour, GM-CSF + fMLP; for Inhibition of CD63 up-regulation: 10 μM, relative to DMSO, FIG. 4; for inhibition at 10 µM: Homo sapiens, Neutrophil, N=15 donors, FIG. 4, read-out: Mean % inhibition of CD63 up-regulation
Text: as §1, §2

[6] = system: wild-type neutrophils; assay: Secretion by wild-type neutrophils; format: cell-based
[7] = system: neutrophils that carry the NLRP3 A350V mutation; assay: Secretion by bone-marrow-derived neutrophils from Nlrp3 A350V (CAPS) mice; format: cell-based, mouse; conditions: 10 μM, 1 hour, LPS and fMLF; for Mobilization of azurophilic granules (MPO) / Mobilization of gelatinase granules (MMP9) / Mobilization of CD63: FIG. 8; for Neutrophil secretion (hyperactivation of secretion): Nlrp3 A350V and wild type, FIG. 8A-C; for Mobilization of CD63: murine neutrophils
Text: FIG. 8A-C. […] A, gelatinase (MMP9) granules; B, azurophilic granules (MPO, myeloperoxidase); C, CD63 (an endolysosomal marker). […] Subsequently, neutrophils were either stimulated with lipopolisacharide (LPS) and the chemotatctic peptide fMLF or left untreated. C20 (Nexinhib20 is used as control). Mean±SEM, n=3. In this and subsequent figures, p<0.05; **, p<0.01; ***, p<0.001; ****, p<0.0001, ANOVA.
These compounds are now tested using neutrophils from a mouse model of Cryopyrin-Associated Periodic Syndrome (CAPS), a systemic inflammatory disease in humans, caused by gain-of-function mutations of the NOD-like receptor family member, cryopirin, also known as NLRP3 (J Cin Immunol 39, 277-286, doi:10.1007/s10875-019-00638-z (2019)). Heterozygous NLRP3 mutations lead to hyper-responsive NLRP3 inflammasome function characterized by increased caspase-1 (Casp1) activation and […], and is observed in patients and in animal models with NLRP3-gain-of-function mutations. […] Subsequently, neutrophils were either stimulated with LPS and the chemotatctic peptide fMLF or left untreated.

[8] = 10 μM inhibitor, PMA stimulated, FIG. 3B
[9] = Mus musculus, Neutrophil, 10 μM inhibitor, PMA stimulated, FIG. 3B

| SMILES | Release of CD11b+ vesicles / CD11b upregulation [1] | % inhibition of CD66b up-regulation ([2]; 10 μM, N=12 donors, FIG. 5) | Inhibition of CD66b up-regulation ([2]; 10 μM, FIG. 5) | Inhibition in MMP9 experiment (words; printed as CD66b up-regulation) [3] | Mean % inhibition of MPO-dependent chemiluminescence (MPO secretion) [4, 8] | Inhibition of CD63 up-regulation [5] | inhibition at 10 µM ([2]; N=12 donors) | inhibition at 10 µM [3] | Inhibitory effect on wild-type neutrophils [6] | Mobilization of azurophilic granules (MPO) [7] | Mobilization of gelatinase granules (MMP9) [7] | Neutrophil secretion (hyperactivation of secretion) [7] | Mobilization of CD63 [7] | Inhibition of exocytosis vs DMSO control [4, 8] | inhibition at 10 µM [4, 9] | inhibition at 10 µM [5] | Neutrophil secretion (hyperactivation of secretion) ([7]; listed as C1) | Neutrophil secretion (hyperactivation of secretion) ([7]; listed as NEIa-C1) | IC50 ([4]; Mus musculus, Neutrophil, dose-response analysis, FIG. 3C) |
| --- | --- | --- | --- | --- | --- | --- | --- | --- | --- | --- | --- | --- | --- | --- | --- | --- | --- | --- | --- |
| CC(C)(C)C(=O)/C(=C/c1cccc([N+](=O)[O-])c1)n1cncn1 [Nexinhib20, reference compound] | significantly inhibited CD11b upregulation at the plasma membrane (to levels lower than basal controls) | 100% | marked and significant inhibition of CD66b up-regulation | marked inhibition of CD66b up-regulation | 99.22% | marked and significant inhibition of CD63 up-regulation |  |  |  |  |  |  |  |  |  |  |  |  |  |
| O=C(Nc1ccccc1)/C(=C/c1cccc([N+](=O)[O-])c1)n1cncn1 [152 (C4)] | unaffected |  | marked and significant inhibition of CD66b up-regulation |  |  |  | 48.1% | 16.4% | selective inhibitory effect on wild-type neutrophils | inhibit the mobilization | inhibit the mobilization of gelatinase granules (MMP9) | inhibit the hyperactivation of secretion | significantly inhibited the mobilization of CD63 | significant inhibition of exocytosis | 70.9% |  |  |  |  |
| CC(C)(C)C(=O)C(=Cc1cccc(O)c1)n1cncn1 [151 (C2)] | unaffected |  | marked and significant inhibition of CD66b up-regulation | marked inhibition of CD66b up-regulation |  | marked and significant inhibition of CD63 up-regulation | 35.8% | 26.5% | selective inhibitory effect on wild-type neutrophils |  |  |  |  | significant inhibition of exocytosis | 59.9% | 59.5% |  |  |  |
| CNC(=O)/C(=C/c1cccc([N+](=O)[O-])c1)n1cncn1 [153 (C5)] | unaffected |  |  |  |  |  |  |  |  |  |  |  |  |  |  |  |  |  |  |
| CN(C)c1cccc(/C=C(/C(=O)C(C)(C)C)n2cncn2)c1 [150 (C1)] | unaffected |  | marked and significant inhibition of CD66b up-regulation | marked inhibition of CD66b up-regulation |  | marked and significant inhibition of CD63 up-regulation | 57.6% | 55.3% | selective inhibitory effect on wild-type neutrophils | inhibit the mobilization | inhibit the mobilization of gelatinase granules (MMP9) |  | significantly inhibited the mobilization of CD63 | significant inhibition of exocytosis | 76.7% | 93.1% | inhibit the hyperactivation of secretion | significantly inhibit secretion | 0.86 µM |
